Measurements from ChEMBL document CHEMBL1132216, “Studies on the monoamine oxidase-B-catalyzed biotransformation of 4-azaaryl-1-methyl-1,2,3,6-tetrahydropyridine derivatives” (J Med Chem, 1999).

How the values were obtained:
[1] = biological target: T1, Amine oxidase [flavin-containing] B (Bos taurus, UniProt P56560); assay: Ratio of Kcat versus Km was determined
T1 sequence (P56560 whole entry): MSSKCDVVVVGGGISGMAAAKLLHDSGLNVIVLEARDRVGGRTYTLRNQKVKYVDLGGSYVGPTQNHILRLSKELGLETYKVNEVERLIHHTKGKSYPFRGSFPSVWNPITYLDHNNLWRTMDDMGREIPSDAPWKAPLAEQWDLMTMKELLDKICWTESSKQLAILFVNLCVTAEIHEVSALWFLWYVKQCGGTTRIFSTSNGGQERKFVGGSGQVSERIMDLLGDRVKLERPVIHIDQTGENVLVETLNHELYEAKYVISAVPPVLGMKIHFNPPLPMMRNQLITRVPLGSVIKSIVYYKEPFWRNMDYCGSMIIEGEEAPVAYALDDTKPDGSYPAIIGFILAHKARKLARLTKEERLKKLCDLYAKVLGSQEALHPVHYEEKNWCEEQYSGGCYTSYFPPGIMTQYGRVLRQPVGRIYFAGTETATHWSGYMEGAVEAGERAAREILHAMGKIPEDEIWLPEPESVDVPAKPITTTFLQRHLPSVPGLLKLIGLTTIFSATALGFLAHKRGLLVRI

[2] = biological target: T1, Amine oxidase [flavin-containing] B; conditions: cattle
Description: Kcat against bovine liver Monoamine oxidase B

[3] = physchem; conditions: octanol/water
Description: Partition coefficient (logP)

[4] = biological target: T2, Monoamine oxidase B (MAO-B) (Bos taurus, UniProt P56560); assay: in vitro; conditions: cattle, bovine liver monoamine oxidase B
T2 sequence (P56560 whole entry): T1 sequence (P56560 whole entry)
Description: Km against bovine liver Monoamine oxidase B

Compound `CN1CC=C(c2ccccn2)CC1` has a Ratio [1] of 60, a k cat [2] of 0.933 s⁻¹ and a logP [3] of 1.24. The Km [4] was 900 µM.

Work on `CN1CC=C(c2cccnc2)CC1` yielded a Ratio [1] of 35, a k cat [2] of 1.12 s⁻¹ and a logP [3] of 1.44. It also gave a Km [4] of 1900 µM.

`CN1CC=C(n2nccn2)CC1` gave a logP [3] of 1.13.

`CN1CC=C(n2ccnc2)CC1` showed a logP [3] of 1.31.

With `CN1CC=C(n2ncc3ccccc32)CC1` the Ratio [1] was 850 and the logP [3] was 2.85.

With `CN1CC=C(c2ccc[nH]2)CC1` the logP [3] was 1.27.

`CN1CC=C(n2cccc2)CC1` gave a Ratio [1] of 410 and a logP [3] of 2.17.

`CN1CC=C(c2cccn2C)CC1` showed a logP [3] of 1.73.

`CN1CC=C(c2ccncc2)CC1` showed a Ratio [1] of 6 and a logP [3] of 1.24.

`CN1CC=C(n2ccnn2)CC1` gave a logP [3] of 1.13.

With `CN1CC=C(n2nnc3ccccc32)CC1` the Ratio [1] was 675 and the logP [3] was 2.36.

With `CN1CC=C(n2ccc3ccccc32)CC1` the Ratio [1] was 3350 and the logP [3] was 3.61.

`CN1CC=C(n2cnc3ccccc32)CC1` gave a Ratio [1] of 220 and a logP [3] of 2.54.
